The values that follow come from PubChem BioAssay (NCI).

Among the test systems are HL-60(TB) leukemia; EKVX NSCLC; IGROV1 ovarian; TK-10 renal; NCI-H522 lung; A549 NSCLC; ACHN renal; CAKI-1 renal; SF-295 CNS; U251 CNS.
Common to all, as to assay: NCI-60 cell line screen, 48 h

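Results reflect a 48-hour exposure of cells in 96-well plates to compound at five concentrations. GI50 = concentration required for 50% inhibition of growth. TGI marks complete inhibition of growth.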 Bounds are passed on as bounds.

Turning to `O=[N+]([O-])c1ccc2nc(N/N=C/c3ccc(O)cc3)sc2c1`, the GI50 was 3.6 µM in the test with HL-60(TB) leukemia; 7.37 µM in the test with EKVX NSCLC; 3.84 µM with IGROV1 ovarian; 3.97 µM in the test on TK-10 renal; 1.49 µM with NCI-H522 lung; 3.52 µM in the test on A549 NSCLC. For the same molecule, the GI50 in the test with ACHN renal was 4.63 µM; in the test on CAKI-1 renal, 4.07 µM; with SF-295 CNS, 5.61 µM; in the test with U251 CNS, 4.56 µM. Moreover, the TGI in the test on HL-60(TB) leukemia is 10.6 µM; with EKVX NSCLC, over 100 µM; with IGROV1 ovarian it was over 100 µM; with TK-10 renal, 29.8 µM; with NCI-H522 lung, 10.2 µM; in the test on A549 NSCLC, 29.4 µM. The TGI in the test on ACHN renal is over 100 µM; in the test on CAKI-1 renal, 81.5 µM; with SF-295 CNS, over 100 µM; in the test with U251 CNS, 67.5 µM.

With `O=C(O)C1Cc2nc[nH]c2CN1` (stereo not drawn), the TGI in the test on HL-60(TB) leukemia, in the test on EKVX NSCLC, with IGROV1 ovarian, with TK-10 renal, in the test with NCI-H522 lung and in the test on A549 NSCLC was over 100 µM in each case. Further, the TGI in the test with ACHN renal, with CAKI-1 renal, in the test with SF-295 CNS and in the test on U251 CNS was over 100 µM throughout.

With `O=C(Oc1ccc([N+](=O)[O-])cc1)N1CCC(C(O)(c2ccc3c(c2)OCO3)c2ccc3c(c2)OCO3)CC1`, the GI50 in the test with HL-60(TB) leukemia, in the test with EKVX NSCLC, with IGROV1 ovarian, in the test on TK-10 renal, in the test with NCI-H522 lung and in the test on A549 NSCLC was over 100 µM throughout. Besides, the GI50 in the test with ACHN renal, in the test with CAKI-1 renal, in the test on SF-295 CNS and in the test with U251 CNS was over 100 µM throughout. For the same molecule, the TGI in the test with HL-60(TB) leukemia, with EKVX NSCLC, in the test with IGROV1 ovarian, in the test with TK-10 renal, in the test on NCI-H522 lung and with A549 NSCLC was over 100 µM each time. Moreover, the TGI with ACHN renal, in the test on CAKI-1 renal, with SF-295 CNS and in the test on U251 CNS was over 100 µM each time.

Consider `O=C1C(Nc2ccccn2)=C(I)C(=O)c2ncccc21`, for which the GI50 is 1.63 µM in the test on HL-60(TB) leukemia; 1.62 µM with EKVX NSCLC; 0.741 µM in the test with IGROV1 ovarian; 1.87 µM in the test with TK-10 renal; 0.725 µM in the test with NCI-H522 lung; 1.28 µM in the test with A549 NSCLC. The GI50 in the test on ACHN renal is 0.403 µM; in the test with CAKI-1 renal it was 0.826 µM; in the test with SF-295 CNS it was 1.19 µM; with U251 CNS, 0.591 µM. Also, the TGI in the test with HL-60(TB) leukemia is 3.77 µM; in the test with EKVX NSCLC, 3.3 µM; in the test on IGROV1 ovarian, 2.25 µM; in the test with TK-10 renal, 3.65 µM; in the test on NCI-H522 lung, 2.5 µM; in the test on A549 NSCLC it was 2.88 µM. The TGI was determined as 4.49 µM with ACHN renal, 2.12 µM in the test on CAKI-1 renal, 2.56 µM in the test with SF-295 CNS and 2.07 µM in the test with U251 CNS.

For `C=CCSc1n[nH]c(-c2cccs2)n1`, the GI50 in the test with HL-60(TB) leukemia, with EKVX NSCLC, with IGROV1 ovarian, in the test with TK-10 renal, in the test with NCI-H522 lung and in the test on A549 NSCLC was over 100 µM in each case. In addition, the GI50 in the test on ACHN renal, with CAKI-1 renal, in the test on SF-295 CNS and with U251 CNS was over 100 µM throughout. Also, the TGI in the test on HL-60(TB) leukemia, in the test on EKVX NSCLC, in the test with IGROV1 ovarian, in the test with TK-10 renal, in the test with NCI-H522 lung and in the test with A549 NSCLC was over 100 µM throughout. In addition, the TGI in the test with ACHN renal, with CAKI-1 renal, in the test on SF-295 CNS and in the test on U251 CNS was over 100 µM throughout.

On to `NC1=C(c2nc(-c3cc4ccccc4oc3=O)cs2)C(c2ccco2)c2c(c3ccccc3oc2=O)O1` (stereo not drawn), for which the GI50 was over 150 µg/mL with HL-60(TB) leukemia; 69.7 µg/mL with EKVX NSCLC; over 150 µg/mL with IGROV1 ovarian; 46.4 µg/mL in the test on TK-10 renal; over 150 µg/mL with NCI-H522 lung; over 150 µg/mL in the test on A549 NSCLC. For the same molecule, the GI50 in the test on ACHN renal was 36.3 µg/mL; in the test with CAKI-1 renal it was over 150 µg/mL; in the test on SF-295 CNS, 130 µg/mL; in the test on U251 CNS, 21.7 µg/mL. For the same molecule, the TGI in the test on HL-60(TB) leukemia is over 150 µg/mL; in the test on EKVX NSCLC, over 150 µg/mL; with IGROV1 ovarian, over 150 µg/mL; in the test on TK-10 renal, 87.6 µg/mL; in the test on NCI-H522 lung, over 150 µg/mL; in the test on A549 NSCLC it was over 150 µg/mL. The TGI in the test with ACHN renal was over 150 µg/mL; in the test with CAKI-1 renal it was over 150 µg/mL; in the test with SF-295 CNS, over 150 µg/mL; in the test with U251 CNS, 58.4 µg/mL.

`Fc1cccc(F)c1C1SCc2nc3ccccc3n21` (stereo not drawn): the TGI with HL-60(TB) leukemia was 82.7 µM; in the test on EKVX NSCLC, over 100 µM; with IGROV1 ovarian it was over 100 µM; in the test with TK-10 renal it was over 100 µM; with NCI-H522 lung, over 100 µM; in the test on A549 NSCLC, over 100 µM. Further, the TGI with ACHN renal, in the test on CAKI-1 renal, with SF-295 CNS and with U251 CNS was over 100 µM each time.

Consider `CC1CC2C3CC(F)C4=CC(=O)C=CC4(C)C3(F)C(O)CC2(C)C1(O)C(=O)CO` (stereo not drawn), for which the TGI in the test on HL-60(TB) leukemia, in the test with EKVX NSCLC, in the test with IGROV1 ovarian, in the test on TK-10 renal, in the test with NCI-H522 lung and in the test on A549 NSCLC was over 100 µM throughout. For the same molecule, the TGI with ACHN renal, in the test on CAKI-1 renal, with SF-295 CNS and in the test with U251 CNS was over 100 µM each time.

On to `Cc1cc(NC(=O)CCc2ccc(N3C(N)=NC(N)=NC3(C)C)cc2)ccc1S(=O)(=O)F`, for which the GI50 in the test on HL-60(TB) leukemia is 3.45 µM; with EKVX NSCLC it was 0.884 µM; in the test on TK-10 renal, 4.94 µM; in the test on NCI-H522 lung, 3.66 µM; in the test with A549 NSCLC, 0.151 µM; with ACHN renal, 26.2 µM. The GI50 with SF-295 CNS was 2.61 µM; in the test on U251 CNS it was 0.148 µM. Besides, the TGI in the test with HL-60(TB) leukemia, with EKVX NSCLC, in the test with IGROV1 ovarian, in the test on TK-10 renal, in the test on NCI-H522 lung and in the test with A549 NSCLC was over 100 µM in each case. In addition, the TGI in the test on ACHN renal, in the test with CAKI-1 renal, with SF-295 CNS and with U251 CNS was over 100 µM in each case.
